{
  "source": "patent US9573920B2",
  "about": "“Compound, medicine, anti-inflammatory, cosmetic, food and drink, and method for producing compound” (Amino Up Chemical Co., Ltd., priority 2013, dated 2017)",
  "assay_type_in_all_cases": "cell-based, rat",
  "key": {"[1]": {"system": "CINC-2α/β", "experiment": "cytokine/chemokine array (in vitro), CINC-2α/β", "conditions": "(+) IL-1β 1 nM, Pa5′ 100 μM", "description": "(§1) In like manner with Example 4, liver cells were isolated from male Wistar rats by a collagenase perfusion method. The isolated liver cells were suspended in a medium (similar to that in Example 4) at 1.2×10^6 cells/mL, seeded in 35 mm plastic dishes (similar to those in Example 4) (1 mL/dish), and cultured in an incubator with 5% CO2 at 37° C. After 5 hours, the medium was replaced with fresh WE free of any serum and hormone, and the cells were cultured overnight until before use of the cells for an experiment.\n(§2) On day 1 after the start of the culture, cells were subjected to replacement with fresh WE free of any serum and hormone, and IL-1β (similar to that in Example 4), and Pa5 extracted with methanol in Example 1 or Pa5′ extracted with methanol in Example 2 were added to the medium. The concentrations of IL-1β, Pa5, and Pa5′ in each medium were 1 nM, 20 μM, and 100 μM, respectively (Table 1). Then, the cells were cultured at 37° C., and the medium was collected 3 hours after the start of the culture. The collected medium was centrifuged for 1 minute at 5000 rpm to remove cellular debris, and the supernatant was used in an assay. The supernatant was preserved at −80° C. until performing the assay.\n(§3) The productions of the various inflammatory cytokines/chemokines were measured according to an accompanying protocol using Rat Cytokine Antibody Array (R&D Systems) (http://www.rndsystems.com/product_detail_objectname_ratcytokinearray.aspx) capable of detecting 29 kinds of cytokines/chemokines in Proteome Profiler® Antibody Array. In the measurement, 1 mL of the supernatant of the medium obtained as described above was used.\n(§4) In the above-described method, the 29 kinds of the cytokines/chemokines can be detected at once, and chemiluminescence on the filter of Proteome Profiler Antibody Array increases in proportion to the amount of each cytokine/chemokine. Thus, the chemiluminescence on the filter of Proteome Profiler Antibody Array was detected with LAS3000mini (GE Healthcare), subjected to densitometry analysis, and converted into a numeric value. The densitometry analysis was carried out with reference to http://www.hm6.aitai.ne.jp/˜maxcat/imageJ/technique.html#gels (the heading of “Analyzing Electrophoretic Gels”) using ImageJ software."}, "[2]": {"system": "sICAM-1 (CD54)", "experiment": "cytokine/chemokine array (in vitro), sICAM-1", "conditions": "(+) IL-1β 1 nM, Pa5′ 100 μM", "description": "as §1, §2, §3, §4"}, "[3]": {"system": "IL-17", "experiment": "cytokine/chemokine array (in vitro), IL-17", "conditions": "Pa5′ 100 μM", "description": "as §1, §2, §3, §4"}, "[4]": {"system": "MIG (CXCL9)", "experiment": "cytokine/chemokine array (in vitro), MIG", "conditions": "(+) IL-1β 1 nM, Pa5′ 100 μM", "description": "as §1, §2, §3, §4"}, "[5]": {"system": "VEGF (VEGF-A/Vasculotropin)", "experiment": "cytokine/chemokine array (in vitro), VEGF", "conditions": "(+) IL-1β 1 nM, Pa5′ 100 μM", "description": "as §1, §2, §3, §4"}, "[6]": {"system": "Fractalkine (CX3CL1)", "experiment": "cytokine/chemokine array (in vitro), Fractalkine", "conditions": "Pa5′ 100 μM", "description": "as §1, §2, §3, §4"}, "[7]": {"system": "CINC-3", "experiment": "cytokine/chemokine array (in vitro), CINC-3", "conditions": "(+) IL-1β 1 nM, Pa5′ 100 μM", "description": "as §1, §2, §3, §4"}, "[8]": {"system": "Thymus Chemokine (CXCL7)", "experiment": "cytokine/chemokine array (in vitro), Thymus Chemokine", "conditions": "Pa5′ 100 μM", "description": "as §1, §2, §3, §4"}, "[9]": {"conditions": "(+) IL-1β 1 nM, 3 hours, (+) alone = 100.0"}, "[10]": {"conditions": "(+) IL-1β 1 nM, medium at 3 hours"}, "[11]": {"conditions": "rat liver cells, IL-1β 1 nM, 3 hours"}},
  "data": [
    {"smiles": "COc1cc(O)c2c(c1O)OC(c1ccccc1)CC2=O", "note": "(centres unmarked) [Pa5′, 5,8-dihydroxy-7-methoxyflavanone]", "values": [
      {"measurement": "CINC-2α/β (%)", "setting": "[1]; 3 hours, (+) alone = 100.0", "result": 96.8, "unit": "%"},
      {"measurement": "CINC-2α/β chemiluminescence densitometry, Average", "setting": "[1]; medium at 3 hours", "result": 5839.6},
      {"measurement": "CINC-2α/β chemiluminescence densitometry, first value", "setting": "[1]; medium at 3 hours", "result": 5944.2},
      {"measurement": "CINC-2α/β chemiluminescence densitometry, second value", "setting": "[1]; medium at 3 hours", "result": 5735.0},
      {"measurement": "sICAM-1 (CD54) (%)", "setting": "[2]; 3 hours, (+) alone = 100.0", "result": 68.4, "unit": "%"},
      {"measurement": "sICAM-1 (CD54) chemiluminescence densitometry, Average", "setting": "[2]; medium at 3 hours", "result": 257.3},
      {"measurement": "sICAM-1 (CD54) chemiluminescence densitometry, first value", "setting": "[2]; medium at 3 hours", "result": 250.3},
      {"measurement": "sICAM-1 (CD54) chemiluminescence densitometry, second value", "setting": "[2]; medium at 3 hours", "result": 264.3},
      {"measurement": "IL-17 (%)", "setting": "[3]; [9]", "result": 29.6, "unit": "%"},
      {"measurement": "IL-17 chemiluminescence densitometry, Average", "setting": "[3]; [10]", "result": 36.7},
      {"measurement": "IL-17 chemiluminescence densitometry, first value", "setting": "[3]; [10]", "result": 6.1},
      {"measurement": "IL-17 chemiluminescence densitometry, second value", "setting": "[3]; [10]", "result": 67.2},
      {"measurement": "induction of IL-17", "setting": "[3]; [11]", "result": "strongly inhibit"},
      {"measurement": "MIG (CXCL9) (%)", "setting": "[4]; 3 hours, (+) alone = 100.0", "result": 86.8, "unit": "%"},
      {"measurement": "MIG (CXCL9) chemiluminescence densitometry, Average", "setting": "[4]; medium at 3 hours", "result": 666.4},
      {"measurement": "MIG (CXCL9) chemiluminescence densitometry, first value", "setting": "[4]; medium at 3 hours", "result": 672.8},
      {"measurement": "MIG (CXCL9) chemiluminescence densitometry, second value", "setting": "[4]; medium at 3 hours", "result": 660.1},
      {"measurement": "VEGF (VEGF-A/Vasculotropin) (%)", "setting": "[5]; 3 hours, (+) alone = 100.0", "result": 109.7, "unit": "%"},
      {"measurement": "VEGF (VEGF-A/Vasculotropin) chemiluminescence densitometry, Average", "setting": "[5]; medium at 3 hours", "result": 896.7},
      {"measurement": "VEGF (VEGF-A/Vasculotropin) chemiluminescence densitometry, first value", "setting": "[5]; medium at 3 hours", "result": 875.1},
      {"measurement": "VEGF (VEGF-A/Vasculotropin) chemiluminescence densitometry, second value", "setting": "[5]; medium at 3 hours", "result": 918.4},
      {"measurement": "Fractakine (CX3CL1) (%)", "setting": "[6]; [9]", "result": 42.7, "unit": "%"},
      {"measurement": "Fractakine (CX3CL1) chemiluminescence densitometry, Average", "setting": "[6]; [10]", "result": 310.1},
      {"measurement": "Fractakine (CX3CL1) chemiluminescence densitometry, first value", "setting": "[6]; [10]", "result": 287.0},
      {"measurement": "Fractakine (CX3CL1) chemiluminescence densitometry, second value", "setting": "[6]; [10]", "result": 333.3},
      {"measurement": "induction of fractalkine (CX3CL1)", "setting": "[6]; [11]", "result": "strongly inhibit"},
      {"measurement": "CINC-3 (%)", "setting": "[7]; 3 hours, (+) alone = 100.0", "result": 60.8, "unit": "%"},
      {"measurement": "CINC-3 chemiluminescence densitometry, Average", "setting": "[7]; medium at 3 hours", "result": 1846.9},
      {"measurement": "CINC-3 chemiluminescence densitometry, first value", "setting": "[7]; medium at 3 hours", "result": 1849.2},
      {"measurement": "CINC-3 chemiluminescence densitometry, second value", "setting": "[7]; medium at 3 hours", "result": 1844.7},
      {"measurement": "Thymus Chemokine (CXCL7) (%)", "setting": "[8]; [9]", "result": 23.1, "unit": "%"},
      {"measurement": "Thymus Chemokine (CXCL7) chemiluminescence densitometry, Average", "setting": "[8]; [10]", "result": 73.0},
      {"measurement": "Thymus Chemokine (CXCL7) chemiluminescence densitometry, first value", "setting": "[8]; [10]", "result": 62.8},
      {"measurement": "Thymus Chemokine (CXCL7) chemiluminescence densitometry, second value", "setting": "[8]; [10]", "result": 83.2},
      {"measurement": "induction of thymus chemokine (CXCL7)", "setting": "[8]; [11]", "result": "strongly inhibit"}
    ]}
  ]
}
